Measurements as given in PubChem BioAssay AID1918946 (Molecular Pharmacology Branch, DTP, NCI, 2023).
Values joined by “and” are separate entries in the source; they are usually repeats but may differ in a detail not shown here. Identical values can stand only once.

Tested on: 885512-296-R-J2-PDC complex spheroid viability
Test: Anticancer human tumor 885512-296-R-J2-PDC patient-derived breast carcinoma cell line growth inhibition
Conditions: for viability, T/C: stronger effect = lower value
In short: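 Complex spheroids of tumor cells with HUVEC and human MSCs, exposed to iadademstat combined with other agents. Each agent tested in half-log steps from near clinical Cmax (else 10 microM top), DMSO ≤0.25%.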

[1] = curve of first compound, second compound 0.1 µM
[2] = curve of first compound, second compound 0.316 µM
[3] = curve of first compound, second compound 1 µM
[4] = curve of first compound, second compound 3.16 µM
[5] = curve of first compound, second compound 10 µM
[6] = second compound 0.1 µM, first compound 0.00316 µM
[7] = second compound 0.1 µM, first compound 0.01 µM
[8] = second compound 0.1 µM, first compound 0.0316 µM
[9] = second compound 0.1 µM, first compound 0.1 µM
[10] = second compound 0.1 µM, first compound 0.316 µM
[11] = second compound 0.1 µM, first compound 1 µM
[12] = second compound 0.316 µM, first compound 0.00316 µM
[13] = second compound 0.316 µM, first compound 0.01 µM
[14] = second compound 0.316 µM, first compound 0.0316 µM
[15] = second compound 0.316 µM, first compound 0.1 µM
[16] = second compound 0.316 µM, first compound 0.316 µM
[17] = second compound 0.316 µM, first compound 1 µM
[18] = second compound 1 µM, first compound 0.00316 µM
[19] = second compound 1 µM, first compound 0.01 µM
[20] = second compound 1 µM, first compound 0.0316 µM
[21] = second compound 1 µM, first compound 0.1 µM
[22] = second compound 1 µM, first compound 0.316 µM
[23] = second compound 1 µM, first compound 1 µM
[24] = second compound 3.16 µM, first compound 0.00316 µM
[25] = second compound 3.16 µM, first compound 0.01 µM
[26] = second compound 3.16 µM, first compound 0.0316 µM
[27] = second compound 3.16 µM, first compound 0.1 µM
[28] = second compound 3.16 µM, first compound 0.316 µM
[29] = second compound 3.16 µM, first compound 1 µM
[30] = second compound 10 µM, first compound 0.00316 µM
[31] = second compound 10 µM, first compound 0.01 µM
[32] = second compound 10 µM, first compound 0.0316 µM
[33] = second compound 10 µM, first compound 0.1 µM
[34] = second compound 10 µM, first compound 0.316 µM
[35] = second compound 10 µM, first compound 1 µM
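Also: spheroids exposed to agents for 7 days before viability read.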

`COc1cc(Nc2ncc3c(n2)-c2ccc(Cl)cc2C(c2c(F)cccc2OC)=NC3)ccc1C(=O)O` + NC1CCC(NC2CC2c2ccccc2)CC1 showed an IC50 [1] of 0.00896 µM, an IC50 [2] of 0.00735 µM and an IC50 [3] of 0.00737 µM. For the same compound, the IC50 [4] was 0.00953 µM, the IC50 [5] was 0.00512 µM and the viability, T/C [6] was 78.8%. The viability, T/C [7] was 42.8%, the viability, T/C [8] was 33.2% and the viability, T/C [9] was 24%. The viability, T/C [10] was 12.3%, the viability, T/C [11] was 13.2% and the viability, T/C [12] was 90.6%. For the same compound, the viability, T/C [13] was 31.3%, the viability, T/C [14] was 34.2% and the viability, T/C [15] was 39.1%. It also gave a viability, T/C [16] of 14.5%, a viability, T/C [17] of 11.5% and a viability, T/C [18] of 90.9%. For the same compound, the viability, T/C [19] was 29.4%, the viability, T/C [20] was 37.3% and the viability, T/C [21] was 22.1%. For the same compound, the viability, T/C [22] was 17.5%, the viability, T/C [23] was 13.2% and the viability, T/C [24] was 87.4%. For the same compound, the viability, T/C [25] was 42.1%, the viability, T/C [26] was 33.7% and the viability, T/C [27] was 38.1%. The viability, T/C [28] was 14.6%, the viability, T/C [29] was 16.6% and the viability, T/C [30] was 70.5%. It also gave a viability, T/C [31] of 21.4%, a viability, T/C [32] of 29.7% and a viability, T/C [33] of 22.7%. For the same compound, the viability, T/C [34] was 17.1% and the viability, T/C [35] was 15.3%.
`O=C(C=Cn1cnc(-c2cc(C(F)(F)F)cc(C(F)(F)F)c2)n1)NNc1cnccn1` was tested, and the viability, T/C (compound 0.00316 µM) was 31.1% and 23.7%, the viability, T/C (compound 0.01 µM) was 5.75% and 8.41% and the viability, T/C (compound 0.0316 µM) was 3.88% and 2.23%. The viability, T/C (compound 0.1 µM) was 6.09% and 0.68%, the viability, T/C (compound 0.316 µM) was 7.95% and 0.57% and the viability, T/C (compound 1 µM) was 6.27% and 0.53%. For the same compound, the IC50 (curve of compound) was < 0.00316 µM.
For `O=C(C=Cn1cnc(-c2cc(C(F)(F)F)cc(C(F)(F)F)c2)n1)NNc1cnccn1` + NC1CC1c1ccc(-c2cccc(O)c2)cc1, the IC50 [1] was < 0.00316 µM, the IC50 [2] was < 0.00316 µM and the IC50 [3] was < 0.00316 µM. The IC50 [4] was < 0.00316 µM, the IC50 [5] was < 0.00316 µM and the viability, T/C [6] was 22.8%. It also gave a viability, T/C [7] of 11.1%, a viability, T/C [8] of 1.78% and a viability, T/C [9] of 0.68%. The viability, T/C [10] was 0.55%, the viability, T/C [11] was 0.47% and the viability, T/C [12] was 17.4%. It also gave a viability, T/C [13] of 11.5%, a viability, T/C [14] of 1.98% and a viability, T/C [15] of 0.67%. For the same compound, the viability, T/C [16] was 0.5%, the viability, T/C [17] was 0.4% and the viability, T/C [18] was 19%. The viability, T/C [19] was 10.3%, the viability, T/C [20] was 2.51% and the viability, T/C [21] was 0.72%. The viability, T/C [22] was 0.52%, the viability, T/C [23] was 0.58% and the viability, T/C [24] was 13.6%. The viability, T/C [25] was 10.3%, the viability, T/C [26] was 2.71% and the viability, T/C [27] was 0.8%. It also gave a viability, T/C [28] of 0.52%, a viability, T/C [29] of 0.63% and a viability, T/C [30] of 14.8%. The viability, T/C [31] was 8.29%, the viability, T/C [32] was 2.21% and the viability, T/C [33] was 0.82%. For the same compound, the viability, T/C [34] was 0.71% and the viability, T/C [35] was 0.78%.
`COc1ccc([C@@H](O)c2cc(-c3ncnc4cc(N5CCOCC5)ccc34)c(F)cc2Cl)nn1` + NC1CCC(NC2CC2c2ccccc2)CC1 showed an IC50 [1] of 3.53 µM, an IC50 [2] of 3 µM and an IC50 [3] of 2.66 µM. It also gave an IC50 [4] of 3.23 µM, an IC50 [5] of 2.19 µM and a viability, T/C [8] of 114%. The viability, T/C [9] was 104%, the viability, T/C [10] was 90.3% and the viability, T/C [11] was 91.8%. The viability, T/C (second compound 0.1 µM, first compound 3.16 µM) was 50.1%, the viability, T/C (second compound 0.1 µM, first compound 10 µM) was 12.1% and the viability, T/C [14] was 128%. It also gave a viability, T/C [15] of 119%, a viability, T/C [16] of 101% and a viability, T/C [17] of 85.2%. For the same compound, the viability, T/C (second compound 0.316 µM, first compound 3.16 µM) was 46.3%, the viability, T/C (second compound 0.316 µM, first compound 10 µM) was 11.4% and the viability, T/C [20] was 142%. The viability, T/C [21] was 102%, the viability, T/C [22] was 102% and the viability, T/C [23] was 89.8%. The viability, T/C (second compound 1 µM, first compound 3.16 µM) was 36.6%, the viability, T/C (second compound 1 µM, first compound 10 µM) was 9.41% and the viability, T/C [26] was 117%. The viability, T/C [27] was 109%, the viability, T/C [28] was 105% and the viability, T/C [29] was 92.8%. The viability, T/C (second compound 3.16 µM, first compound 3.16 µM) was 49.7%, the viability, T/C (second compound 3.16 µM, first compound 10 µM) was 10.4% and the viability, T/C [32] was 130%. It also gave a viability, T/C [33] of 94.9%, a viability, T/C [34] of 87.2% and a viability, T/C [35] of 84.3%. It also gave a viability, T/C (second compound 10 µM, first compound 3.16 µM) of 35% and a viability, T/C (second compound 10 µM, first compound 10 µM) of 5.65%.
Work on `Nc1ncn(C2CC(O)C(CO)O2)c(=O)n1` (stereo unspecified) + NC1CC1c1ccc(-c2cccc(O)c2)cc1 yielded an IC50 [1] of 0.0779 µM, an IC50 [2] of 0.0725 µM and an IC50 [3] of 0.0861 µM. The IC50 [4] was 0.0724 µM, the IC50 [5] was 0.0464 µM and the viability, T/C [6] was 116%. It also gave a viability, T/C [7] of 106%, a viability, T/C [8] of 79% and a viability, T/C [9] of 41.6%. It also gave a viability, T/C [10] of 21.4%, a viability, T/C [11] of 13.3% and a viability, T/C [12] of 106%. It also gave a viability, T/C [13] of 112%, a viability, T/C [14] of 70.5% and a viability, T/C [15] of 43.1%. The viability, T/C [16] was 23.4%, the viability, T/C [17] was 15.9% and the viability, T/C [18] was 107%. For the same compound, the viability, T/C [19] was 99.4%, the viability, T/C [20] was 81.2% and the viability, T/C [21] was 44.5%. It also gave a viability, T/C [22] of 22.9%, a viability, T/C [23] of 13.4% and a viability, T/C [24] of 95.5%. For the same compound, the viability, T/C [25] was 103%, the viability, T/C [26] was 73.1% and the viability, T/C [27] was 40.6%. It also gave a viability, T/C [28] of 21.7%, a viability, T/C [29] of 13.4% and a viability, T/C [30] of 72%. The viability, T/C [31] was 69.5%, the viability, T/C [32] was 57.5% and the viability, T/C [33] was 34.6%. For the same compound, the viability, T/C [34] was 18.3% and the viability, T/C [35] was 11.4%.
`CCN(c1cc(-c2ccc(CN3CCOCC3)cc2)cc(C(=O)NCc2c(C)cc(C)[nH]c2=O)c1C)C1CCOCC1` was tested, and the viability, T/C (compound 0.00949 µM) was 92.3% and 81.8%, the viability, T/C (compound 0.03 µM) was 80.2% and 89.8% and the viability, T/C (compound 0.0949 µM) was 74.8% and 68%. For the same compound, the viability, T/C (compound 0.3 µM) was 60.2% and 35.7%, the viability, T/C (compound 0.949 µM) was 76.2% and 18.2% and the viability, T/C (compound 3 µM) was 25.1% and 7.11%. For the same compound, the IC50 (curve of compound) was 1.7 µM and 0.188 µM.
With `O=C(C=Cc1cccc(S(=O)(=O)Nc2ccccc2)c1)NO` the viability, T/C (compound 0.00949 µM) was 70% and 91.1%, the viability, T/C (compound 0.03 µM) was 60.1% and 44% and the viability, T/C (compound 0.0949 µM) was 32.8% and 28.1%. The viability, T/C (compound 0.3 µM) was 20.3% and 16.4%, the viability, T/C (compound 0.949 µM) was 13.7% and 2.92% and the viability, T/C (compound 3 µM) was 13.9% and 72.2%. The IC50 (curve of compound) was 0.0457 µM and 0.026 µM.
